In experiment [1] the target is T1, CsgA (Escherichia coli, UniProt P28307). Conditions: 20-residue peptides on array.
The target in experiment [2] is T1, CsgA. The note with it: ThT fluorescence, FIG. 7E.
For experiment [3], the target named is T1, CsgA. It counts as biochemical. Conditions: CsgA:inhibitor ratios, FIG. 9.

T1 sequence (P28307 21-151): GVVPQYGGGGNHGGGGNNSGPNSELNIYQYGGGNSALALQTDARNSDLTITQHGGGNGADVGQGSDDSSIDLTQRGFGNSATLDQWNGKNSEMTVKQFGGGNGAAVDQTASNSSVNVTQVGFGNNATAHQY

Take GTQKTAIVVQRQSQMAIRVT [CsgB130-149]: the “fluorescence of labelled CsgA bound to peptide spot (in words)” value at CsgA [1] is reported as “strongest signal”. Moreover, at CsgA [2], the “nucleation of CsgA fiber assembly by plate-bound peptide (in words)” value is “facilitated CsgA amyloid fiber formation with first-order kinetics”.
Consider `C[C@@H]1[C@H](O)[C@@H](C)/C=C/C=C/C=C/C=C/C=C/C=C/C=C/[C@H](O[C@@H]2O[C@H](C)[C@@H](O)[C@H](N)[C@@H]2O)C[C@@H]2O[C@](O)(C[C@@H](O)C[C@@H](O)[C@H](O)CC[C@@H](O)C[C@@H](O)CC(=O)O[C@H]1C)C[C@H](O)[C@H]2C(=O)O` [AmphB, Amphotericin B], for which, at CsgA [3], the “effect of small molecule inhibitors on curli amyloid fiber formation (in words)” value is reported as “does not inhibit Curli assembly”.
Still for that read-out and setting: then `COc1ccc(Nc2cc3c(cc2Nc2ccc(OC)cc2)C(=O)NC3=O)cc1` [DAPH-12], with “secetively inhibits Curli assembly”.

Source of the values: patent US20120301433A1, “BACTERIOPHAGES EXPRESSING AMYLOID PEPTIDES AND USES THEREOF” (priority 2009, published 2012).
